The structures appear in SMILES notation. Calls of active or inactive are those of the source. No cut-off for these calls is given here.

The first assay deals with T1, Acetylcholinesterase (Rattus norvegicus, UniProt P37136).
T1 sequence (P37136 whole entry): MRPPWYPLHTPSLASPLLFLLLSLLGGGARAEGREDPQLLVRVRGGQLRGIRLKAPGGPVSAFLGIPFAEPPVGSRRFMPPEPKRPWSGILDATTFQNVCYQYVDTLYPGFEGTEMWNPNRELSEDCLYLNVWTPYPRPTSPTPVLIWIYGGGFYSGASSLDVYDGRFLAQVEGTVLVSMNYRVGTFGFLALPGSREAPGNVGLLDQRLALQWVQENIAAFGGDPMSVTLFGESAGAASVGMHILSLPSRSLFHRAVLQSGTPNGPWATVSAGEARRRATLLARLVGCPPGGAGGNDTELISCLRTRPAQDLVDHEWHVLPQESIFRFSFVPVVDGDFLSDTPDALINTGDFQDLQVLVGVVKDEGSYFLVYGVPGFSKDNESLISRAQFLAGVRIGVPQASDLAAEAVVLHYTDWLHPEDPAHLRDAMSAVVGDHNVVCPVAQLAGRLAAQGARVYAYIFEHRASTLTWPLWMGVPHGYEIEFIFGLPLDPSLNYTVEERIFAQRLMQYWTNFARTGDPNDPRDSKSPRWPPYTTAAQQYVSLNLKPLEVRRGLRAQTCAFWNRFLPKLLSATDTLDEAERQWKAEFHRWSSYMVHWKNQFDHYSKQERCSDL
Briefly: Inhibition of AChE activity in rat brain homogenate using acetylthiocholine as substrate by Ellman's method. Format: tissue-based. Background: Ellman's reagent forms a yellow product with free thiols.
The term IC50 denotes the concentration needed to halve the response being measured. A higher IC50 goes with weaker potency. As for `Cc1ccc(N2O[C@H]3C(=O)N(c4ccc(C(=O)O)cc4)C(=O)[C@H]3[C@@H]2c2ccccc2Cl)cc1` (relative stereo), the IC50 stood at 22.1 nM.
In turn, `O=C(O)c1ccc(N2C(=O)[C@H]3[C@H](ON(c4ccccc4)[C@H]3c3ccccc3Cl)C2=O)cc1` (relative stereo) gave an IC50 of 21.8 nM.
With `O=C(O)c1ccc(N2C(=O)[C@@H]3[C@@H](ON(c4ccccc4)[C@H]3c3ccccc3)C2=O)cc1` (relative stereo), the IC50 is 24.4 nM.
Same read-out and setting: in the case of `Cc1ccc(N2O[C@H]3C(=O)N(c4ccc(C(=O)O)cc4)C(=O)[C@H]3[C@@H]2c2ccccc2)cc1` (relative stereo) it was 22.4 nM; in that of `Cc1ccc(N2O[C@@H]3C(=O)N(c4ccc(C(=O)O)cc4)C(=O)[C@@H]3[C@@H]2c2ccc(Cl)cc2)cc1` (relative stereo), 19.2 nM.
`Cc1ccc(N2O[C@@H]3C(=O)N(c4ccc(C(=O)O)cc4)C(=O)[C@@H]3[C@@H]2c2ccc(O)cc2)cc1` (relative stereo) had an IC50 of 21.9 nM.
The same measure, in the same setting: in the case of `O=C(O)c1ccc(N2C(=O)[C@@H]3[C@@H](ON(c4ccccc4)[C@H]3c3ccc(Cl)cc3)C2=O)cc1` (relative stereo) it was 20.9 nM; in that of `Cc1ccc(N2O[C@@H]3C(=O)N(c4ccc(C(=O)O)cc4)C(=O)[C@@H]3[C@@H]2c2ccccc2Cl)cc1` (relative stereo), 21.3 nM; in that of `COc1ccccc1[C@H]1[C@H]2C(=O)N(c3ccc(C(=O)O)cc3)C(=O)[C@H]2ON1c1ccc(C)cc1` (relative stereo), 19.1 nM.
The compound `Cc1ccc(N2O[C@@H]3C(=O)N(c4ccc(C(=O)O)cc4)C(=O)[C@@H]3[C@@H]2c2ccc([N+](=O)[O-])cc2)cc1` (relative stereo) showed an IC50 of 23.4 nM.
Take `COc1cccc([C@H]2[C@@H]3C(=O)N(c4ccc(C(=O)O)cc4)C(=O)[C@@H]3ON2c2ccc(C)cc2)c1` (relative stereo): half-maximal inhibition (IC50) required 19.9 nM.
As to `Cc1ccc(N2O[C@@H]3C(=O)N(c4ccc(C(=O)O)cc4)C(=O)[C@@H]3[C@@H]2c2ccccc2)cc1` (relative stereo), the IC50 came to 22.8 nM.
Turning to `O=C(O)c1ccc(N2C(=O)[C@H]3[C@H](ON(c4ccccc4)[C@H]3c3ccc([N+](=O)[O-])cc3)C2=O)cc1` (relative stereo), the IC50 came to 25.8 nM.
Turning to `O=C(O)c1ccc(N2C(=O)[C@H]3[C@H](ON(c4ccccc4)[C@H]3c3ccc(O)cc3)C2=O)cc1` (relative stereo), the IC50 is 22.5 nM.
In the case of `O=C(O)c1ccc(N2C(=O)[C@@H]3[C@@H](ON(c4ccccc4)[C@H]3c3ccc(O)cc3)C2=O)cc1` (relative stereo), it took 22.7 nM to reach half-maximal inhibition (IC50).
Same read-out and setting: in the case of `COc1ccc([C@H]2[C@@H]3C(=O)N(c4ccc(C(=O)O)cc4)C(=O)[C@@H]3ON2c2ccc(C)cc2)cc1` (relative stereo) it was 18 nM; in that of `O=C(O)c1ccc(N2C(=O)[C@H]3[C@H](ON(c4ccccc4)[C@H]3c3ccc(Cl)cc3)C2=O)cc1` (relative stereo), 19.7 nM.
The compound `COc1ccccc1[C@H]1[C@H]2C(=O)N(c3ccc(C(=O)O)cc3)C(=O)[C@H]2ON1c1ccccc1` (relative stereo) showed an IC50 of 19.2 nM.
The same measure, in the same setting: to `O=C(O)c1ccc(N2C(=O)[C@@H]3[C@@H](ON(c4ccccc4)[C@H]3c3cccc(Cl)c3)C2=O)cc1` (relative stereo) belongs 21.8 nM.
As to `COc1ccccc1[C@H]1[C@@H]2C(=O)N(c3ccc(C(=O)O)cc3)C(=O)[C@@H]2ON1c1ccc(C)cc1` (relative stereo), the half-maximal inhibitory concentration (IC50) was found to be 20.2 nM.
As for `COc1cccc([C@H]2[C@H]3C(=O)N(c4ccc(C(=O)O)cc4)C(=O)[C@H]3ON2c2ccc(C)cc2)c1` (relative stereo), it took 18.8 nM to reach half-maximal inhibition (IC50).
In turn, `COc1cccc([C@H]2[C@@H]3C(=O)N(c4ccc(C(=O)O)cc4)C(=O)[C@@H]3ON2c2ccccc2)c1` (relative stereo) registered an IC50 of 20.5 nM.
Compound `Cc1ccc(N2O[C@@H]3C(=O)N(c4ccc(C(=O)O)cc4)C(=O)[C@@H]3[C@@H]2c2ccccc2[N+](=O)[O-])cc1` (relative stereo) came in with a half-inhibitory concentration (IC50) of 24.3 nM.
As for `COc1ccc([C@H]2[C@@H]3C(=O)N(c4ccc(C(=O)O)cc4)C(=O)[C@@H]3ON2c2ccccc2)cc1`, the IC50 was determined as 19.1 nM.
With `Cc1ccc(N2O[C@H]3C(=O)N(c4ccc(C(=O)O)cc4)C(=O)[C@H]3[C@@H]2c2ccc(O)cc2)cc1` (relative stereo), the IC50 stood at 22.5 nM.
Regarding `Cc1ccc(N2O[C@H]3C(=O)N(c4ccc(C(=O)O)cc4)C(=O)[C@H]3[C@@H]2c2ccccc2[N+](=O)[O-])cc1` (relative stereo), the half-inhibitory concentration (IC50) was determined as 25.2 nM.
Turning to `COc1ccccc1[C@H]1[C@@H]2C(=O)N(c3ccc(C(=O)O)cc3)C(=O)[C@@H]2ON1c1ccccc1` (relative stereo), 20.6 nM corresponded to half-maximal inhibition (IC50).
The compound `Cc1ccc(N2O[C@@H]3C(=O)N(c4ccc(C(=O)O)cc4)C(=O)[C@@H]3[C@@H]2c2cccc(Cl)c2)cc1` (relative stereo) returned an IC50 of 22.2 nM.
In turn, `Cc1ccc(N2O[C@H]3C(=O)N(c4ccc(C(=O)O)cc4)C(=O)[C@H]3[C@@H]2c2ccccc2O)cc1` (relative stereo) had an IC50 of 24.1 nM.
With `O=C(O)c1ccc(N2C(=O)[C@H]3[C@H](ON(c4ccccc4)[C@H]3c3cccc(Cl)c3)C2=O)cc1` (relative stereo), inhibition was half-maximal at 20.1 nM (IC50).
Take `O=C(O)c1ccc(N2C(=O)[C@H]3[C@H](ON(c4ccccc4)[C@H]3c3ccccc3[N+](=O)[O-])C2=O)cc1` (relative stereo): inhibition was half-maximal at 26.1 nM (IC50).
In the case of `COc1cccc([C@H]2[C@H]3C(=O)N(c4ccc(C(=O)O)cc4)C(=O)[C@H]3ON2c2ccccc2)c1` (relative stereo), the midpoint of inhibition, the IC50, lay at 19.1 nM.
In the case of `Cc1ccc(N2O[C@H]3C(=O)N(c4ccc(C(=O)O)cc4)C(=O)[C@H]3[C@@H]2c2ccc(Cl)cc2)cc1`, the IC50 was found to be 20.4 nM.
Regarding `O=C(O)c1ccc(N2C(=O)[C@@H]3[C@@H](ON(c4ccccc4)[C@H]3c3ccc([N+](=O)[O-])cc3)C2=O)cc1` (relative stereo), the IC50 turned out to be 26.4 nM.
`O=C(O)c1ccc(N2C(=O)[C@@H]3[C@@H](ON(c4ccccc4)[C@H]3c3ccccc3O)C2=O)cc1` (relative stereo) showed an IC50 of 24.8 nM.
The compound `COc1ccc([C@H]2[C@H]3C(=O)N(c4ccc(C(=O)O)cc4)C(=O)[C@H]3ON2c2ccccc2)cc1` (relative stereo) yielded an IC50 of 18.8 nM.
The compound `O=C(O)c1ccc(N2C(=O)[C@@H]3[C@@H](ON(c4ccccc4)[C@H]3c3ccccc3[N+](=O)[O-])C2=O)cc1` (relative stereo) gave an IC50 of 26.9 nM.
Regarding `Cc1ccc(N2O[C@H]3C(=O)N(c4ccc(C(=O)O)cc4)C(=O)[C@H]3[C@@H]2c2ccc([N+](=O)[O-])cc2)cc1`, the half-maximal inhibitory concentration (IC50) stood at 24.1 nM.
For `O=C(O)c1ccc(N2C(=O)[C@H]3[C@H](ON(c4ccccc4)[C@H]3c3ccccc3)C2=O)cc1` (relative stereo), the IC50 was 23.9 nM.
Compound `O=C(O)c1ccc(N2C(=O)[C@@H]3[C@@H](ON(c4ccccc4)[C@H]3c3ccccc3Cl)C2=O)cc1` (relative stereo) yielded an IC50 of 22.4 nM.
Turning to `Cc1ccc(N2O[C@H]3C(=O)N(c4ccc(C(=O)O)cc4)C(=O)[C@H]3[C@@H]2c2cccc(Cl)c2)cc1` (relative stereo), the IC50 came out at 23.8 nM.
The same measure, in the same setting: to `Cc1ccc(N2O[C@@H]3C(=O)N(c4ccc(C(=O)O)cc4)C(=O)[C@@H]3[C@@H]2c2ccccc2O)cc1` belongs 23.2 nM; to `O=C(O)c1ccc(N2C(=O)[C@H]3[C@H](ON(c4ccccc4)[C@H]3c3ccccc3O)C2=O)cc1` (relative stereo), 23.9 nM.

Another assay relates to Mus musculus. Briefly: Antiamnesic activity in scopolamine-induced amnesia mouse model assessed as increase in time spent in target quadrant at 25 mg/kg, ip measured on day 5 by Morris water maze test. Format: functional, organism-based. More on the design: dose 25 mg/kg.
In the case of `COc1cc2c(cc1OC)C(=O)C(CC1CCN(Cc3ccccc3)CC1)C2` (centres undefined), the outcome was Active.

For the origin of these results see ChEMBL document CHEMBL2069196, “Synthesis and evaluation of novel 4-[(3H,3aH,6aH)-3-phenyl)-4,6-dioxo-2-phenyldihydro-2H-pyrrolo[3,4-d]isoxazol-5(3H,6H,6aH)-yl]benzoic acid derivatives as potent acetylcholinesterase inhibitors and anti-amnestic agents” (Bioorg Med Chem, 2012).
